Assay results from patent publication US7973080B2 (Ambria Dermatology AB, priority 2003, dated 2011).

Columns and labels:
male rabbits = conditions: four male rabbits, skin sealed 24 hrs, highest tested dose 20 ml/kg, observed over a fortnight
Method: Topical administration. The penetration of rabbit skin was tested with a cuff model. The hair on the back of four male rabbits weighing from 2.5 to 3.5 kg was removed by shaving, the diol applied to the skin with a pipette, and the skin sealed with polyethylene film for 24 hrs. During the test period the animals were immobilised. After the exposure the animals were observed over a fortnight period.

[1] = test system: coagulation-negative staphylococci; assay: MIC by standard blood agar dilution technique
Description: (§1) The following bacteria were investigated: methicillin-resistant Staphylococcus aureus (MSRA), fucidic acid-resistant S. aureus, non-resistant S. pyogenes, coagulation-negative staphylococci (for resistance, see Table 1 below) vancomycin-resistant enterococci (Enterococcus CCUG van A and van B), non-resistant Escherichia coli, Acinetobacter resistant against cefadroxil, nitrofurantin, mecillinam, Serratia maltophilia resistant against most types of antibiotics, Enterobacter (for resistance, see Table 1 below; additionally resistant against cefadroxil and nitrofurantin), non-resistant α-streptococci, non-resistant Streptococcus Group G, Pseudomonas aeruginosa (for resistance, see Table 2 below). Inocula of 10^3 and 10^5 bacteria were used.

Pseudomonas aeruginosa = assay: MIC by standard blood agar dilution technique
Description: as §1

Escherichia coli = assay: MIC by standard blood agar dilution technique
Description: as §1

Enterococcus = assay: MIC by standard blood agar dilution technique; conditions: MR fuc +
Description: as §1

Alphastreptococci = assay: MIC by standard blood agar dilution technique; conditions: inoculate size 10^3
Description: as §1

[2] = test system: methicillin-resistant Staphylococcus aureus; assay: MIC by standard blood agar dilution technique; conditions: MR fuc +, met +
Description: as §1

`OCCCCCO` [pentane-1,5-diol] was tested. Which “survival after topical administration” value (male rabbits) did it give?
Its value is “the animals survived”.

What about the “MIC (% by weight of pentane-1,5-diol)” value ([1]; Coag.neg.staph. 900 × 5515, inoculate size 10^3, MR fuc +) of the same compound?
Its value is 12.5 % by weight.

And the “MIC (% by weight of pentane-1,5-diol)” value ([1]; Coag.neg.staph. 900 × 5515, inoculate size 10^5, MR fuc +)?
Its value is 15.0 % by weight.

What about the “MIC (% by weight of pentane-1,5-diol)” value ([1]; Coag.neg.staph. 900 × 5516, inoculate size 10^3, MR fuc −) of the same compound?
Its value is 7.5 % by weight.

What about the “MIC (% by weight of pentane-1,5-diol)” value ([1]; Coag.neg.staph. 900 × 5516, inoculate size 10^5, MR fuc −) of the same compound?
Its value is 12.5 % by weight.

What about the “MIC (% by weight of pentane-1,5-diol)” value ([1]; Coag.neg.staph. 900 × 5525, inoculate size 10^5, MR fuc −) of the same compound?
Its value is 7.5 % by weight.

What about the “MIC (% by weight of pentane-1,5-diol)” value ([1]; Coag.neg.staph. 900 × 5538, inoculate size 10^3, MR fuc −) of the same compound?
Its value is 5.0 % by weight.

And the “MIC (% by weight of pentane-1,5-diol)” value ([1]; Coag.neg.staph. 900 × 5538, inoculate size 10^5, MR fuc −)?
The value was 12.5 % by weight.

What about the “MIC (% by weight of pentane-1,5-diol)” value ([1]; Coag.neg.staph. 900 × 5539, inoculate size 10^3, MR fuc −) of the same compound?
The value was 7.5 % by weight.

And the “MIC (% by weight of pentane-1,5-diol)” value ([1]; Coag.neg.staph. 900 × 5539, inoculate size 10^5, MR fuc −)?
The value was 10.0 % by weight.

What about the “MIC (% by weight of pentane-1,5-diol)” value ([1]; Coag.neg.staph. 902 × 14176 large, inoculate size 10^3, MR fuc −) of the same compound?
The value was 7.5 % by weight.

And the “MIC (% by weight of pentane-1,5-diol)” value ([1]; Coag.neg.staph. 902 × 14176 large, inoculate size 10^5, MR fuc −)?
The value was 20.0 % by weight.

What about the “MIC (% by weight of pentane-1,5-diol)” value ([1]; Coag.neg.staph. 902 × 14176 small, inoculate size 10^3, MR fuc +) of the same compound?
The value was 7.5 % by weight.

What about the “MIC (% by weight of pentane-1,5-diol)” value ([1]; Coag.neg.staph. 902 × 14176 small, inoculate size 10^5, MR fuc +) of the same compound?
Its value is 10.0 % by weight.

What about the “MIC (% by weight of pentane-1,5-diol)” value ([1]; Coag.neg.staph. 904 × 2816, inoculate size 10^3, MR fuc +) of the same compound?
Its value is 10.0 % by weight.

What about the “MIC (% by weight of pentane-1,5-diol)” value ([1]; Coag.neg.staph. 904 × 2816, inoculate size 10^5, MR fuc +) of the same compound?
Its value is 17.5 % by weight.

And the “MIC (% by weight of pentane-1,5-diol)” value ([1]; Coag.neg.staph. 916 × 8132, inoculate size 10^3, MR fuc −)?
Its value is 7.5 % by weight.

And the “MIC (% by weight of pentane-1,5-diol)” value ([1]; Coag.neg.staph. 916 × 8132, inoculate size 10^5, MR fuc −)?
Its value is 12.5 % by weight.

What about the “MIC (% by weight of pentane-1,5-diol)” value ([1]; Coag.neg.staph. 916 × 8188, inoculate size 10^3, MR fuc −) of the same compound?
Its value is 15.0 % by weight.

And the “MIC (% by weight of pentane-1,5-diol)” value ([1]; Coag.neg.staph. 916 × 8188, inoculate size 10^5, MR fuc −)?
The value was 17.5 % by weight.

And the “MIC (% by weight of pentane-1,5-diol)” value (Pseudomonas aeruginosa; P. aeruginosa 921 × 17701, inoculate size 10^3, MR cip +, tri +)?
The value was 5.0 % by weight.

What about the “MIC (% by weight of pentane-1,5-diol)” value (Pseudomonas aeruginosa; P. aeruginosa 921 × 17748, inoculate size 10^3, MR cip −, tri +) of the same compound?
Its value is 5.0 % by weight.

What about the “MIC (% by weight of pentane-1,5-diol)” value (Pseudomonas aeruginosa; P. aeruginosa 921 × 17756, inoculate size 10^3, MR cip +, tri +) of the same compound?
The value was 5.0 % by weight.

What about the “MIC (% by weight of pentane-1,5-diol)” value (Pseudomonas aeruginosa; P. aeruginosa 921 × 57855, inoculate size 10^5, MR van +, tri −) of the same compound?
The value was 10.0 % by weight.

And the “MIC (% by weight of pentane-1,5-diol)” value (Pseudomonas aeruginosa; P. aeruginosa CCUG 17619, inoculate size 10^3)?
The value was 5.0 % by weight.

What about the “MIC (% by weight of pentane-1,5-diol)” value (Pseudomonas aeruginosa; P. aeruginosa CCUG 17619, inoculate size 10^5) of the same compound?
The value was 5.0 % by weight.

And the “MIC (% by weight of pentane-1,5-diol)” value (Escherichia coli; E. coli 921 × 57387, inoculate size 10^3, MR tri +)?
Its value is 5.0 % by weight.

And the “MIC (% by weight of pentane-1,5-diol)” value (Escherichia coli; E. coli 921 × 57387, inoculate size 10^5, MR tri +)?
The value was 10.0 % by weight.

What about the “MIC (% by weight of pentane-1,5-diol)” value (Escherichia coli; E. coli 921 × 57388, inoculate size 10^3) of the same compound?
The value was 5.0 % by weight.

What about the “MIC (% by weight of pentane-1,5-diol)” value (Escherichia coli; E. coli 921 × 57388, inoculate size 10^5) of the same compound?
The value was 10.0 % by weight.

What about the “MIC (% by weight of pentane-1,5-diol)” value (Escherichia coli; E. coli 921 × 57389, inoculate size 10^3) of the same compound?
The value was 5.0 % by weight.

And the “MIC (% by weight of pentane-1,5-diol)” value (Escherichia coli; E. coli 921 × 57389, inoculate size 10^5)?
The value was 10.0 % by weight.

And the “MIC (% by weight of pentane-1,5-diol)” value (Escherichia coli; E. coli 921 × 57397, inoculate size 10^3)?
The value was 5.0 % by weight.

And the “MIC (% by weight of pentane-1,5-diol)” value (Escherichia coli; E. coli 921 × 57397, inoculate size 10^5)?
Its value is 10.0 % by weight.

And the “MIC (% by weight of pentane-1,5-diol)” value (Escherichia coli; E. coli 921 × 57418, inoculate size 10^3)?
The value was 5.0 % by weight.

What about the “MIC (% by weight of pentane-1,5-diol)” value (Escherichia coli; E. coli 921 × 57418, inoculate size 10^5) of the same compound?
The value was 10.0 % by weight.

What about the “MIC (% by weight of pentane-1,5-diol)” value (Enterococcus; Enterococcus 921 × 57002, inoculate size 10^3, van −, tri −) of the same compound?
Its value is 7.5 % by weight.

And the “MIC (% by weight of pentane-1,5-diol)” value (Enterococcus; Enterococcus 921 × 57002, inoculate size 10^5, van −, tri −)?
Its value is 10.0 % by weight.

What about the “MIC (% by weight of pentane-1,5-diol)” value (Enterococcus; Enterococcus 921 × 57022, inoculate size 10^3, van −, cip +, tri +) of the same compound?
The value was 5.0 % by weight.

And the “MIC (% by weight of pentane-1,5-diol)” value (Enterococcus; Enterococcus 921 × 57022, inoculate size 10^5, van −, cip +, tri +)?
Its value is 7.5 % by weight.

And the “MIC (% by weight of pentane-1,5-diol)” value (Enterococcus; Enterococcus 921 × 57057, inoculate size 10^3, van −, tri −)?
The value was 7.5 % by weight.

What about the “MIC (% by weight of pentane-1,5-diol)” value (Enterococcus; Enterococcus 921 × 57057, inoculate size 10^5, van −, tri −) of the same compound?
Its value is 10.9 % by weight.

What about the “MIC (% by weight of pentane-1,5-diol)” value (Enterococcus; Enterococcus 921 × 57093, inoculate size 10^3, van −, tri +) of the same compound?
Its value is 7.5 % by weight.

And the “MIC (% by weight of pentane-1,5-diol)” value (Enterococcus; Enterococcus 921 × 57093, inoculate size 10^5, van −, tri +)?
Its value is 10.0 % by weight.

What about the “MIC (% by weight of pentane-1,5-diol)” value (Enterococcus; Enterococcus 921 × 57158, inoculate size 10^3, van −, tri +) of the same compound?
Its value is 7.5 % by weight.

What about the “MIC (% by weight of pentane-1,5-diol)” value (Enterococcus; Enterococcus 921 × 57158, inoculate size 10^5, van −, tri +) of the same compound?
The value was 7.5 % by weight.

What about the “MIC (% by weight of pentane-1,5-diol)” value (Enterococcus; Enterococcus CCUG 37593 vanB, inoculate size 10^3, van +) of the same compound?
The value was 5.0 % by weight.

And the “MIC (% by weight of pentane-1,5-diol)” value (Enterococcus; Enterococcus CCUG 37593 vanB, inoculate size 10^5, van +)?
The value was 7.5 % by weight.

And the “MIC (% by weight of pentane-1,5-diol)” value (Enterococcus; Enterococcus CCUG 37832 vanA, inoculate size 10^3, van +)?
The value was 5.0 % by weight.

And the “MIC (% by weight of pentane-1,5-diol)” value (Enterococcus; Enterococcus CCUG 37832 vanA, inoculate size 10^5, van +)?
The value was 7.5 % by weight.

And the “MIC (% by weight of pentane-1,5-diol)” value (Enterococcus; Enterococcus CCUG 39128 vanA, inoculate size 10^3, van +)?
The value was 5.0 % by weight.

What about the “MIC (% by weight of pentane-1,5-diol)” value (Enterococcus; Enterococcus CCUG 39128 vanA, inoculate size 10^5, van +) of the same compound?
Its value is 10.0 % by weight.

What about the “MIC (% by weight of pentane-1,5-diol)” value (Enterococcus; Enterococcus CCUG 43324 vanA, inoculate size 10^3, van +) of the same compound?
Its value is 7.5 % by weight.

What about the “MIC (% by weight of pentane-1,5-diol)” value (Enterococcus; Enterococcus CCUG 43324 vanA, inoculate size 10^5, van +) of the same compound?
Its value is 10.0 % by weight.

What about the “MIC (% by weight of pentane-1,5-diol)” value (Alphastreptococci; Alphastreptococci 912 × 1135) of the same compound?
The value was 7.5 % by weight.

And the “MIC (% by weight of pentane-1,5-diol)” value (Alphastreptococci; Alphastreptococci 912 × 1137)?
Its value is 5.0 % by weight.

And the “MIC (% by weight of pentane-1,5-diol)” value (Alphastreptococci; Alphastreptococci 912 × 1138)?
Its value is 5.0 % by weight.

What about the “MIC (% by weight of pentane-1,5-diol)” value (Alphastreptococci; Alphastreptococci 912 × 1139) of the same compound?
Its value is 7.5 % by weight.

What about the “MIC (% by weight of pentane-1,5-diol)” value (Alphastreptococci; Alphastreptococci 912 × 1200) of the same compound?
The value was 7.5 % by weight.

And the “MIC (% by weight of pentane-1,5-diol)” value ([2]; MRSA CCUG 41787, inoculate size 10^3)?
Its value is 12.5 % by weight.

What about the “MIC (% by weight of pentane-1,5-diol)” value ([2]; MRSA CCUG 41787, inoculate size 10^5) of the same compound?
The value was 17.5 % by weight.

What about the “MIC (% by weight of pentane-1,5-diol)” value ([2]; MRSA CCUG 45007, inoculate size 10^3) of the same compound?
The value was 10.0 % by weight.

What about the “MIC (% by weight of pentane-1,5-diol)” value ([2]; MRSA CCUG 45007, inoculate size 10^5) of the same compound?
Its value is 12.5 % by weight.
